*1 amine or outer side, *2 acyl side, *3 side chain or, on linkers, in order; H or OH if unused. Where a SMILES comes first, the peptide text is derived from it. Where no end group is shown, it is not given here. Side-chain parts run from the residue outwards. [ ]: non-standard residue; d: D form. The star is where a group is joined. C18 diacid = O=C(O)CCCCCCCCCCCCCCCCC(=O)*; γGlu = O=C(O)[C@H](CCC(=O)[*:2])N[*:1]; NMeY = CN[C@@H](Cc1ccc(O)cc1)C(=O)O; AEEA = NCCOCCOCC(=O)O; Aib = CC(C)(N)C(=O)O; Sar = CNCC(=O)O
T1: human GIP receptor (human, UniProt P48546 22-466)
T1 sequence (looked up): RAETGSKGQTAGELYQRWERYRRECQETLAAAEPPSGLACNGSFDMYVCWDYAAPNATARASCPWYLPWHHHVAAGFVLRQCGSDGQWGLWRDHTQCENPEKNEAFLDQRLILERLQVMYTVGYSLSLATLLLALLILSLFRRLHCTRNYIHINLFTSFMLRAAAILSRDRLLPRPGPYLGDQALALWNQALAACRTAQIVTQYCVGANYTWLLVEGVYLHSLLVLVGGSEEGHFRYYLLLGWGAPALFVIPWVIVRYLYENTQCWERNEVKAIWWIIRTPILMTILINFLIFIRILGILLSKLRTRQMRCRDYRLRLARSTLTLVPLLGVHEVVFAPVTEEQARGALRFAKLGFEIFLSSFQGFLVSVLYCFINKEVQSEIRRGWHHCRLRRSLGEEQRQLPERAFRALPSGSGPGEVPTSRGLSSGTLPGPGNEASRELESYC


How the values were obtained:
[1] = physchem; type: physicochemical; details: for Soluble amount: 24 h, pH 7.4; for solubility at 24 h: pH 7.4, Soluble amount
Experimental: Prior to the solubility measurement of a peptide batch, its purity was determined through UHPLC/MS. […] Therefore, solutions from solid samples were prepared in a buffer system with a concentration of 10 mg/ml compound based on the previously determined % purity: Solubility buffer system A) 100 mM phosphate buffer pH 7.4 […] Solubility buffer system C) 100 mM phosphate buffer pH 7.4, 2.7 mg/ml m-cresol UHPLC-UV was performed after 1 h of gentle agitation and storage at 5° C. over night (24 h) from the supernatant, which was obtained after 15 min of centrifugation at 2500 RCF (relative centrifugal acceleration). […] The different UV extinction coefficients of sample and reference peptide were calculated based on the different amino acid sequences and considered in the concentration calculation. The analytical method used was Analytical UHPLC Method A. Peptide samples were prepared in solubility buffer system A or C and solubility was assessed as described in Methods.

[2] = molecular target: human GLP-1 receptor (hGLP-1R) (Homo sapiens, UniProt P43220); experiment: cAMP HTRF assay, HEK-293 cell line over-expressing human GLP-1 receptor; type: cell-based; details: HEK-293, cAMP, 0% HSA
human GLP-1 receptor (hGLP-1R), sequence (P43220 24-463): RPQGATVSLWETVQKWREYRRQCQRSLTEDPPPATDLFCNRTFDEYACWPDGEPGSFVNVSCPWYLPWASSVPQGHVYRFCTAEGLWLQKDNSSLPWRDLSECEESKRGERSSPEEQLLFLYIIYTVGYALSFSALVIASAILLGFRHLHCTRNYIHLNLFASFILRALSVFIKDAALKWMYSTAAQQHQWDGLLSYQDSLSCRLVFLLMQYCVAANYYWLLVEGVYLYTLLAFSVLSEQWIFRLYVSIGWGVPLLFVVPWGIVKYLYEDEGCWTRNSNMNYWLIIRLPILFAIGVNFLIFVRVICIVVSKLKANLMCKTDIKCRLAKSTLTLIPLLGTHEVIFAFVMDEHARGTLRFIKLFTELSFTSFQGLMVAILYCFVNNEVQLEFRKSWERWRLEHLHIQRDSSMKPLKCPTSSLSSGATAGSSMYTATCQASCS
Experimental: Each vial contained 1.8 ml cells. The vials were slowly frozen to −80° C. in isopropanol, and then transferred in liquid nitrogen for storage.
Prior to their use, frozen cells were thawed quickly at 37° C. and washed (5 min at 900 rpm) with 20 ml cell buffer (1× HBSS; 20 mM HEPES, plus 0.1% HSA if indicated in Example conditions).
For measurement of cAMP generation, 5 μl cells (final 5000 cells/well) and 5 μl of test compound were added to a 384-well plate, followed by incubation for 30 min at room temperature.
The cAMP generated was determined using a kit from Cisbio Corp. based on HTRF (Homogenous Time Resolved Fluorescence). The cAMP assay was performed according to manufacturer's instructions (Cisbio).

[3] = molecular target: T1, human GIP receptor; experiment: cell-based or functional assay
[4] = molecular target: human GLP-1 receptor (human, UniProt P43220 24-463); experiment: cell-based or functional assay

Row | Molecule | Soluble amount [1] | solubility at 24 h [1] | EC50 [2] | EC50 hGIPR 0% HSA, cAMP in HEK-293 cells [3] | EC50 hGIPR 0.1% HSA, cAMP in HEK-293 cells [3] | EC50 hGLP-1R 0% HSA, cAMP in HEK-293 cells [4]
1 | CC[C@H](C)[C@H](NC(=O)[C@H](Cc1ccccc1)NC(=O)[C@H](CCC(=O)O)NC(=O)[C@H](CCC(=O)O)NC(=O)[C@H](CCC(N)=O)NC(=O)[C@H](Cc1c[nH]cn1)NC(=O)[C@@H](NC(=O)[C@H](CCCNC(=N)N)NC(=O)[C@H](CC(=O)O)NC(=O)[C@H](CCCCNC(=O)COCCOCCNC(=O)COCCOCCNC(=O)COCCOCCNC(=O)CC[C@H](NC(=O)CCCCCCCCCCCCCCCCC(=O)O)C(=O)O)NC(=O)C(C)(C)NC(=O)[C@@H](NC(=O)[C@H](CO)NC(=O)[C@H](CC(C)C)NC(=O)[C@H](CC(=O)O)NC(=O)[C@H](CO)NC(=O)[C@@H](NC(=O)[C@H](Cc1ccccc1)NC(=O)[C@@H](NC(=O)CNC(=O)[C@H](CCC(=O)O)NC(=O)C(C)(C)NC(=O)[C@@H](N)Cc1ccc(O)cc1)[C@@H](C)O)[C@@H](C)CC)[C@@H](C)CC)[C@@H](C)CC)C(=O)N[C@@H](CCC(=O)O)C(=O)N[C@@H](Cc1c[nH]c2ccccc12)C(=O)N[C@@H](CC(C)C)C(=O)N[C@@H](CC(C)C)C(=O)N[C@@H](C)C(=O)N[C@@H](CCC(N)=O)C(=O)NCC(=O)N1CCC[C@H]1C(=O)N[C@@H](CO)C(=O)N[C@@H](CO)C(=O)NCC(=O)N[C@@H](C)C(=O)N1CCC[C@H]1C(=O)N1CCC[C@H]1C(=O)N1CCC[C@H]1C(=O)N[C@@H](CO)C(N)=O [SEQ ID NO: 12, H2N-Y-Aib-E-G-T-F-I-S-D-I-S-I-Aib-K[{AEEA}3-gGlu-C18OH]-DRIHQEEFIEWILAQGPSSGAPPPS-NH2] (H-Y[Aib]EGTFISDLSI[Aib]K([AEEA-AEEA-AEEA-γGlu-C18 diacid])DRIHQEEFIEWLLAQGPSSGAPPPS-NH2) | >9.1 mg/mL | > 8800 µg/mL | > 10000 pM |  |  | 
2 | CC[C@H](C)[C@H](NC(=O)[C@H](Cc1ccccc1)NC(=O)[C@H](CCC(=O)O)NC(=O)[C@H](CCC(=O)O)NC(=O)[C@H](CCC(N)=O)NC(=O)[C@H](Cc1c[nH]cn1)NC(=O)[C@@H](NC(=O)[C@H](CCCNC(=N)N)NC(=O)[C@H](CC(=O)O)NC(=O)[C@H](CCCCNC(=O)COCCOCCNC(=O)COCCOCCNC(=O)CC[C@H](NC(=O)CCCCCCCCCCCCCCCCC(=O)O)C(=O)O)NC(=O)C(C)(C)NC(=O)[C@@H](NC(=O)[C@H](CO)NC(=O)[C@H](CC(C)C)NC(=O)[C@H](CC(=O)O)NC(=O)[C@H](CO)NC(=O)[C@@H](NC(=O)[C@H](Cc1ccccc1)NC(=O)[C@@H](NC(=O)CNC(=O)[C@H](CCC(=O)O)NC(=O)C(C)(C)NC(=O)[C@H](Cc1ccc(O)cc1)NC)[C@@H](C)O)[C@@H](C)CC)[C@@H](C)CC)[C@@H](C)CC)C(=O)N[C@@H](CCC(=O)O)C(=O)N[C@@H](Cc1c[nH]c2ccccc12)C(=O)N[C@@H](CC(C)C)C(=O)N[C@@H](CC(C)C)C(=O)N[C@@H](C)C(=O)N[C@@H](CCC(N)=O)C(=O)NCC(=O)N1CCC[C@H]1C(=O)N[C@@H](CO)C(=O)N[C@@H](CO)C(=O)NCC(=O)N[C@@H](C)C(=O)N1CCC[C@H]1C(=O)N1CCC[C@H]1C(=O)N1CCC[C@H]1C(=O)N[C@@H](CO)C(N)=O [SEQ ID NO: 13, MeHN-Y-Aib-E-G-T-F-I-S-D-I-S-I-Aib-K[{AEEA}2-gGlu-C18OH]-DRIHQEEFIEWILAQGPSSGAPPPS-NH2] (H-[NMeY][Aib]EGTFISDLSI[Aib]K([AEEA-AEEA-γGlu-C18 diacid])DRIHQEEFIEWLLAQGPSSGAPPPS-NH2) | >11.0 mg/mL | > 10200 µg/mL | > 10000 pM |  |  | 
3 | CC[C@H](C)[C@H](NC(=O)[C@H](Cc1ccccc1)NC(=O)[C@H](CCC(=O)O)NC(=O)[C@H](CCC(=O)O)NC(=O)[C@H](CCC(N)=O)NC(=O)[C@H](Cc1c[nH]cn1)NC(=O)[C@@H](NC(=O)[C@H](CCCNC(=N)N)NC(=O)[C@H](CC(=O)O)NC(=O)[C@H](CCCCNC(=O)COCCOCCNC(=O)COCCOCCNC(=O)CC[C@H](NC(=O)CC[C@H](NC(=O)CCCCCCCCCCCCCCCCC(=O)O)C(=O)O)C(=O)O)NC(=O)C(C)(C)NC(=O)[C@@H](NC(=O)[C@H](CO)NC(=O)[C@H](CC(C)C)NC(=O)[C@H](CC(=O)O)NC(=O)[C@H](CO)NC(=O)[C@@H](NC(=O)[C@H](Cc1ccccc1)NC(=O)[C@@H](NC(=O)CNC(=O)[C@H](CCC(=O)O)NC(=O)C(C)(C)NC(=O)[C@@H](N)Cc1ccc(O)cc1)[C@@H](C)O)[C@@H](C)CC)[C@@H](C)CC)[C@@H](C)CC)C(=O)N[C@@H](CCC(=O)O)C(=O)N[C@@H](Cc1c[nH]c2ccccc12)C(=O)N[C@@H](CC(C)C)C(=O)N[C@@H](CC(C)C)C(=O)N[C@@H](C)C(=O)N[C@@H](CCC(N)=O)C(=O)NCC(=O)N1CCC[C@H]1C(=O)N[C@@H](CO)C(=O)N[C@@H](CO)C(=O)NCC(=O)N[C@@H](C)C(=O)N1CCC[C@H]1C(=O)N1CCC[C@H]1C(=O)N1CCC[C@H]1C(=O)N[C@@H](CO)C(N)=O [SEQ ID NO: 14, H2N-Y-Aib-E-G-T-F-I-S-D-I-S-I-Aib-K[{AEEA}2-{gGlu}2-C18OH]-DRIHQEEFIEWILAQGPSSGAPPPS-NH2] (H-Y[Aib]EGTFISDLSI[Aib]K([AEEA-AEEA-γGlu-γGlu-C18 diacid])DRIHQEEFIEWLLAQGPSSGAPPPS-NH2) | >9.7 mg/mL | > 9300 µg/mL | > 10000 pM |  |  | 
4 | Y[Aib]EGTFISDLSI[Aib]K([Gly-Gly-Gly-γGlu-C18 diacid])DRIHQEEFIEWLLAQGPSSGAPPPS-NH2 (N-terminus assumed; SMILES CC[C@H](C)[C@H](NC(=O)[C@H](Cc1ccccc1)NC(=O)[C@H](CCC(=O)O)NC(=O)[C@H](CCC(=O)O)NC(=O)[C@H](CCC(N)=O)NC(=O)[C@H](Cc1c[nH]cn1)NC(=O)[C@@H](NC(=O)[C@H](CCCNC(=N)N)NC(=O)[C@H](CC(=O)O)NC(=O)[C@H](CCCCNC(=O)CNC(=O)CNC(=O)CNC(=O)CC[C@H](NC(=O)CCCCCCCCCCCCCCCCC(=O)O)C(=O)O)NC(=O)C(C)(C)NC(=O)[C@@H](NC(=O)[C@H](CO)NC(=O)[C@H](CC(C)C)NC(=O)[C@H](CC(=O)O)NC(=O)[C@H](CO)NC(=O)[C@@H](NC(=O)[C@H](Cc1ccccc1)NC(=O)[C@@H](NC(=O)CNC(=O)[C@H](CCC(=O)O)NC(=O)C(C)(C)NC(=O)[C@@H](N)Cc1ccc(O)cc1)[C@@H](C)O)[C@@H](C)CC)[C@@H](C)CC)[C@@H](C)CC)C(=O)N[C@@H](CCC(=O)O)C(=O)N[C@@H](Cc1c[nH]c2ccccc12)C(=O)N[C@@H](CC(C)C)C(=O)N[C@@H](CC(C)C)C(=O)N[C@@H](C)C(=O)N[C@@H](CCC(N)=O)C(=O)NCC(=O)N1CCC[C@H]1C(=O)N[C@@H](CO)C(=O)N[C@@H](CO)C(=O)NCC(=O)N[C@@H](C)C(=O)N1CCC[C@H]1C(=O)N1CCC[C@H]1C(=O)N1CCC[C@H]1C(=O)N[C@@H](CO)C(N)=O) [SEQ ID NO: 16] |  |  |  | 0.19 pM | 2.55 pM | > 10000 pM
5 | Y[Aib]EGTFISDLSI[Aib]K([Sar-Sar-Sar-γGlu-C18 diacid])DRIHQEEFIEWLLAQGPSSGAPPPS-NH2 (N-terminus assumed; SMILES CC[C@H](C)[C@H](NC(=O)[C@H](Cc1ccccc1)NC(=O)[C@H](CCC(=O)O)NC(=O)[C@H](CCC(=O)O)NC(=O)[C@H](CCC(N)=O)NC(=O)[C@H](Cc1c[nH]cn1)NC(=O)[C@@H](NC(=O)[C@H](CCCNC(=N)N)NC(=O)[C@H](CC(=O)O)NC(=O)[C@H](CCCCNC(=O)CN(C)C(=O)CN(C)C(=O)CN(C)C(=O)CC[C@H](NC(=O)CCCCCCCCCCCCCCCCC(=O)O)C(=O)O)NC(=O)C(C)(C)NC(=O)[C@@H](NC(=O)[C@H](CO)NC(=O)[C@H](CC(C)C)NC(=O)[C@H](CC(=O)O)NC(=O)[C@H](CO)NC(=O)[C@@H](NC(=O)[C@H](Cc1ccccc1)NC(=O)[C@@H](NC(=O)CNC(=O)[C@H](CCC(=O)O)NC(=O)C(C)(C)NC(=O)[C@@H](N)Cc1ccc(O)cc1)[C@@H](C)O)[C@@H](C)CC)[C@@H](C)CC)[C@@H](C)CC)C(=O)N[C@@H](CCC(=O)O)C(=O)N[C@@H](Cc1c[nH]c2ccccc12)C(=O)N[C@@H](CC(C)C)C(=O)N[C@@H](CC(C)C)C(=O)N[C@@H](C)C(=O)N[C@@H](CCC(N)=O)C(=O)NCC(=O)N1CCC[C@H]1C(=O)N[C@@H](CO)C(=O)N[C@@H](CO)C(=O)NCC(=O)N[C@@H](C)C(=O)N1CCC[C@H]1C(=O)N1CCC[C@H]1C(=O)N1CCC[C@H]1C(=O)N[C@@H](CO)C(N)=O) [SEQ ID NO: 17] |  |  |  | 0.29 pM | 3.39 pM | > 10000 pM

Source: patent US20230103631A1, “PEPTIDES AS SELECTIVE GIP RECEPTOR AGONISTS” (Sanofi, priority 2020, published 2023)
